From publication PMC10928503 (Nature medicine, 2023)

What was measured:
[1] = biological target: T1, FpGNAT (acyl-CoA N-acetyltransferase from F. prausnitzii) (Faecalibacterium duncaniae, UniProt C7H1G6); assay: LC-MS/MS end-point acetylation assay; type: biochemical; settings: 1 mM 5-ASA
T1 sequence (C7H1G6 1-201): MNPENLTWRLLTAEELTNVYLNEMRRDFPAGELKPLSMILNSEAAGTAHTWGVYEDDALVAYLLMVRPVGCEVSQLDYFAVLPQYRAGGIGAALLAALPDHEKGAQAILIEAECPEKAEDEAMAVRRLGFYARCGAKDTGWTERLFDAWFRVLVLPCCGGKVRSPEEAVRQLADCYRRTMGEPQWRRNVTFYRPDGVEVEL

[2] = biological target: Firmicutes CAG:176 thiolase (FcTHL) (Firmicutes CAG:176 (uncultured Firmicutes)); assay: crystal structure
[3] = test system: FcTHL (Firmicutes CAG:176 thiolase); assay: LC-MS/MS of N-acetyl 5-ASA formed, Michaelis-Menten; type: biochemical, Firmicutes bacterium CAG:176; settings: 1 mM acetyl-CoA constant; 20 mM HEPES pH 7.5, 50 mM NaCl, 1 mM MgCl2, 1 mM TCEP, 5 uM enzyme, 37 °C

How did the “LC-MS/MS end-point acetylation assay” value ([1]; acetyl donor, same) turn out when `CC(=O)SCCNC(=O)CCNC(=O)[C@H](O)C(C)(C)COP(=O)(O)OP(=O)(O)OC[C@H]1O[C@@H](n2cnc3c(N)ncnc32)[C@H](O)[C@@H]1OP(=O)(O)O` [acetyl-CoA] was run?
Its value is “convert 5-ASA to N-acetyl-5-ASA in the presence of acetyl-CoA”.

“Firmicutes CAG:176 thiolase (FcTHL) (enzyme)” was tested. Which stoichiometry N [2] did it give?
Its stoichiometry N is 4.

For `Nc1ccc(O)c(C(=O)O)c1` [5-ASA], which “LC-MS/MS end-point acetylation assay” value ([1]; 1 mM acetyl-CoA, 50 uM enzyme, pH 7.5, 37 °C, 6 h) is on record?
Its value is “convert 5-ASA to N-acetyl-5-ASA in the presence of acetyl-CoA”.

And the Km [3]?
The Km was 1880 ± 460 µM.
